Source: patent publication US20250114356A1, “INDAZOLE BASED COMPOUNDS AND ASSOCIATED METHODS OF USE” (Arvinas Operations, Inc., priority 2020, published 2025)

How the values were obtained:
Assay type in all cases: cell-based
wildtype LRRK2 = molecular target: T1, wildtype LRRK2 (Homo sapiens, UniProt Q5S007); test: LRRK2 degradation assay, wildtype LRRK2-HiBit expressed from plasmid in HEK293 cells; conditions: HEK293 cells transfected with HiBit-tagged wildtype LRRK2, 24 hours compound incubation; for Dmax: read-out: **WT Dmax (%); for DC50: read-out: *WT DC50
T1 construct: expressed in transfected cells; host or cells: HEK293 (ATCC CRL-1573), transient transfection, ubiquitin promoter
T1 sequence (Q5S007 whole entry): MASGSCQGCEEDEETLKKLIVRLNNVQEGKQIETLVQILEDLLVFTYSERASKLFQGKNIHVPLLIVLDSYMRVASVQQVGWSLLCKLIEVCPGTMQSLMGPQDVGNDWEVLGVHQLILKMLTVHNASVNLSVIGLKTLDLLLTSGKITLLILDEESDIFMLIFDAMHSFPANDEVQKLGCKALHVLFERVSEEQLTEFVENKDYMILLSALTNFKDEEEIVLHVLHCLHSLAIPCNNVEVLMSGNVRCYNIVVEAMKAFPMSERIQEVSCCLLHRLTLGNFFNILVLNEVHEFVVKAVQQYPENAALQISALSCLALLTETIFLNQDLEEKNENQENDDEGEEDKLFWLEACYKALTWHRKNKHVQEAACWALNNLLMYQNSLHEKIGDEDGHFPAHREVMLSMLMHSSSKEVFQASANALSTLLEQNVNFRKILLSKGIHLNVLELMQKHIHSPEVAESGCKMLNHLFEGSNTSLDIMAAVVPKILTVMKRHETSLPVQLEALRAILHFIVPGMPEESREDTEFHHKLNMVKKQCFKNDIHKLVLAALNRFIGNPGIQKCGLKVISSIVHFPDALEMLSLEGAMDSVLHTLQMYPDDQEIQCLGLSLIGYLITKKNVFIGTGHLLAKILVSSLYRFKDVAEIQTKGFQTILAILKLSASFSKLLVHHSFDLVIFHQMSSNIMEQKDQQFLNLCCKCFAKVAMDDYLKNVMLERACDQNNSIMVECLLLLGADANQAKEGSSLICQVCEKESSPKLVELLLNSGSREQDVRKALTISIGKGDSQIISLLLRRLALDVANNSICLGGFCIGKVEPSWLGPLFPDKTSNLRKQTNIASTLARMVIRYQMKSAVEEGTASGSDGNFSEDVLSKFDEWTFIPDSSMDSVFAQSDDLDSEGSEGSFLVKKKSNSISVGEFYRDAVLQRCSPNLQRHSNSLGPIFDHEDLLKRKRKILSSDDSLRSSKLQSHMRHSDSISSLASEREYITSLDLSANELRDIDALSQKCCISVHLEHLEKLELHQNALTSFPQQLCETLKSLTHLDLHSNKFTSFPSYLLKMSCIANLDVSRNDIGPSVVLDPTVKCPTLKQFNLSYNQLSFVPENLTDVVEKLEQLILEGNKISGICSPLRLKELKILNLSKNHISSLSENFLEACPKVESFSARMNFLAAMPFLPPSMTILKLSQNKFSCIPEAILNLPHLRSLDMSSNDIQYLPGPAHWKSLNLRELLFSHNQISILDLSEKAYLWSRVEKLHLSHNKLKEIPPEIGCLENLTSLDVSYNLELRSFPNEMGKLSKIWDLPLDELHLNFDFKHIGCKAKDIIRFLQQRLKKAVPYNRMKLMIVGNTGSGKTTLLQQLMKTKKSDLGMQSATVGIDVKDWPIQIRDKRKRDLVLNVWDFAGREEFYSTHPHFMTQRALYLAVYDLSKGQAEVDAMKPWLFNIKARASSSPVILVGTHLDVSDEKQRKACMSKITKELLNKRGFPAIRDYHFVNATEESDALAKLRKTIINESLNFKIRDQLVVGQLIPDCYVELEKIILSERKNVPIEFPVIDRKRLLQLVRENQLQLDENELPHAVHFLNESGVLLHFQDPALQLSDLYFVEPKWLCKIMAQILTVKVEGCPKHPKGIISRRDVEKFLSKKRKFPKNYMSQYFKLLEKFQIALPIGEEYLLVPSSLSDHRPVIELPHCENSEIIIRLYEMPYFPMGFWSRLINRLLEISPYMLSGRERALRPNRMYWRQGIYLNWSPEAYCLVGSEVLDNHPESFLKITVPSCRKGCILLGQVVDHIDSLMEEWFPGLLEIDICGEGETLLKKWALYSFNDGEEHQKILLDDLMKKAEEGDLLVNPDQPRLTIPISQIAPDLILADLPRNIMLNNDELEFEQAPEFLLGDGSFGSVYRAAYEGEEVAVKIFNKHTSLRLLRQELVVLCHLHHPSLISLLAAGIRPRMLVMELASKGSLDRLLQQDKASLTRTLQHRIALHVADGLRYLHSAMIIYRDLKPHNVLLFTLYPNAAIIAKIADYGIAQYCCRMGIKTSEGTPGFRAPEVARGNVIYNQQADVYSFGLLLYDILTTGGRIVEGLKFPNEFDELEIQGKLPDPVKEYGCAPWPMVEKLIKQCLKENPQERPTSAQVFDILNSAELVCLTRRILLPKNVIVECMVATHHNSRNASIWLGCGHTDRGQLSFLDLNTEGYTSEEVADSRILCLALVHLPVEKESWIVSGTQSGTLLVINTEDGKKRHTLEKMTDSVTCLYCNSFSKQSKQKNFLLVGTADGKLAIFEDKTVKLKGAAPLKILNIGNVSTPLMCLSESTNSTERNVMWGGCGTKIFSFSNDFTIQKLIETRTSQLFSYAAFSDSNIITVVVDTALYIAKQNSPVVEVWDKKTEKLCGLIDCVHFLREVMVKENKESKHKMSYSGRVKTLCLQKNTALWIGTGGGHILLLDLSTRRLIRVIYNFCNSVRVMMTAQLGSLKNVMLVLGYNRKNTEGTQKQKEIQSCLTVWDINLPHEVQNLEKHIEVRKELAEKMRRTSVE
Outline: (§1)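 HEK293 cells co-transfected with ubiquitin-promoter C-terminal HiBit-tagged wild-type or G2019S LRRK2 plus firefly luciferase, then treated with compound dose-responses for 24 hours at 37° C. HiBit/firefly luciferase ratio (dual Nano-Glo read) normalized to % DMSO median; DC50 and Dmax fitted per plate, 6 replicates over two days.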

[1] = molecular target: T2, LRRK2 (endogenous gene tagged with a HiBit sequence) (Homo sapiens, UniProt Q5S007); test: LRRK2 degradation assay, endogenous LRRK2 gene tagged with HiBit in HEK293 cells; conditions: 24 hours compound incubation; for Dmax: read-out: **Endogenous WT Dmax (%); for DC50: read-out: *Endogenous WT DC50
T2 construct: endogenous in cells; host or cells: HEK293 with a HiBit knock-in at the endogenous LRRK2 locus, stably expressing firefly luciferase
T2 sequence (Q5S007 whole entry): as above
Method: The assay measures the degradation of LRRK2 in cells where the C-terminus (3′) of the endogenous gene has been tagged with a HiBit sequence in HEK293 cells. The cells also express firefly lucisferase, expressed from a Cytomegalovirus promoter and introduced into the HiBit tagged cells and stably expressed. The Nano-Glo® Dual Luciferase Reporter Assay System (Promega™, Madison, WI) was utilized.
Day 1—Preparation of Compound and Assay Plates. Two sets of plates were prepared: a triplicate set for the HiBit assay in white 384-well plates and a triplicate set of plate in black 384-well plates for the Alamar Blue cell viability assay. Briefly, the growth media (DMEM+Glutamax-10% fetal bovine serum-1% Penicillin-Streptomicin) from two T128 flasks was aspirated from the flasks. Cells were washed with Dulbecco's Phosphate Buffered Saline (dPBS) and aspirated. Trypsin (3 mL per flask) was added and the flasks were incubated for 2-3 minutes.
Ten mL of OptiMEM-10% fetal bovine-1% penicillin-streptomycin (hereinafter, “OptiMEM media”) was added to the flask and the cells and transferred to a 50 mL conical tube. A cell count (25 ul of cell into Effendorf vial+25 ul of Trypan Blue Stain) was performed and the cell density adjusted to 15,000 cell/45 μl/well (3.33×10^5/mL) in OptiMEM media.
Forty-five microliters of the cell suspension (15,000 cells) was aliquoted to each well of the white 384-well plate. The plates incubated at room temperature for 10 minutes before being placed in the 37° C.+5% CO2 incubator overnight
Day 2—Compound Treatment. Exemplary compounds were prepared at a 1 mM starting concentration and 1:3 serial dilution for 11 points CRC prepared and stored in the freezer. The Master Compound Plate was thawed overnight at room temperature. DMSO (20 μL) was added into column 24 of the Master Compound Plate for negative control and 20 μL of 300 μM of Exemplary Compound 4 in column 23 as positive control.
Intermediate Compound Plate with 4% DMSO in OptiMEM Media. DMSO was added to warm OptiMEM media to achieve a 4% DMSO solution (approximately 50 mL/plate). One-hundred microliters of the OptiMEM-4% DMSO was aliquoted to each well of 384-Well Deep Well Microplates.
The Master Compound Plate and the Intermediate Compound Plate were spun down.
One microliter of compound from the Master Compound Plate was transferred into the Intermediate plate (a 1:100 dilution). […]
Day 3—HiBit Assay. […] Fluorescence of each plate was read on a plated reader for the Alamar Blue viability assay. […]
The One Glo luciferase mixture was prepared. […] The luminescence of each plate was read on a plate reader.
1:100 DLR substrate and 1:100 LgBiT Protein dilution were added to the Promega Stop and Glo buffer and mixed just before addition to assay plates. […] The luminescence of each plate was read on a plate reader. […]

G2019S LRRK2 = molecular target: T3, G2019S LRRK2 (Homo sapiens, UniProt Q5S007, G2019S); test: LRRK2 degradation assay, G2019S LRRK2-HiBit expressed from plasmid in HEK293 cells; conditions: HEK293 cells transfected with HiBit-tagged G2019S LRRK2, 24 hours compound incubation
T3 construct: expressed in transfected cells; host or cells: HEK293 (ATCC CRL-1573), transient transfection, ubiquitin promoter
T3 sequence (Q5S007 whole entry G2019S): as the sequence (Q5S007 whole entry) above, with G2019S counted along it
Outline: as §1

| Dmax (wildtype LRRK2) [%] | DC50 (wildtype LRRK2) [nM] | Dmax [1] [%] | DC50 [1] [nM] | DC50 (G2019S LRRK2) [nM] | Dmax (G2019S LRRK2) [%] | SMILES |
| --- | --- | --- | --- | --- | --- | --- |
| 50 to 70 | < 10 | 50 to 70 | < 10 | 10 to 50 | 50 to 70 | C[C@H]1CN(c2cc(-c3n[nH]c4ccc(OC5(C)CC5)cc34)ncn2)CCN1CCOCCOCCOCCOc1ccc2c(c1)C(=O)N(C1CCC(=O)NC1=O)C2=O (stereo partly drawn) [compound 4, 2-(2,6-dioxopiperidin-3-yl)-5-{2-[2-(2-{2-[(2S)-2-methyl-4-{6-[5-(1-methylcyclopropoxy)-1H-indazol-3-yl]pyrimidin-4-yl}piperazin-1-yl]ethoxy}ethoxy)ethoxy]ethoxy}-2,3-dihydro-1H-isoindole-1,3-dione] |
| 50 to 70 | < 10 | 50 to 70 | < 10 | < 10 | ≥ 70 | C[C@H]1CN(c2cc(-c3n[nH]c4ccc(OC5(C)CC5)cc34)ncn2)CCN1CC1CCN(CC2CCN(c3ccc4c(c3)C(=O)N(C3CCC(=O)NC3=O)C4=O)CC2)CC1 (stereo partly drawn) [compound 24, 2-(2,6-dioxopiperidin-3-yl)-5-{4-[(4-{[(2S)-2-methyl-4-{6-[5-(1-methylcyclopropoxy)-1H-indazol-3-yl]pyrimidin-4-yl}piperazin-1-yl]methyl}piperidin-1-yl)methyl]piperidin-1-yl}-2,3-dihydro-1H-isoindole-1,3-dione] |
